System: cortical septin structures in MV3 cells
Assay: Cortical septin localization (SEPT6-GFP) in MV3 cells
Format: cell-based, human
Details: MV3 SEPT6-GFP; WGA (50 ug/ml), VitroGel, H1152 (1 μM), NSC668394 (10 μM)
Procedure: Cells Embedded in 3D Collagen.
Cells Grown in VitroGel Coffins. VitroGel coffins were prepared by embedding MV3 or A375 cells in VitroGel 3D or RGD at 1:1 dilution according to manufacturer's instructions (TheWell Biosciences, sku #TWG001). […] A 1:1 solution of VitroGel and VitroGel Dilution Solution was made and added to cell suspension at a ratio of 4:1 (VitroGel: cells) using gentle pipetting until well-mixed (with care taken not to form bubbles). Cell/VitroGel solution was transferred to an 8-well uncoated ibidi μ-slide (ibidi cat #80821) at 100 μl/well, spread over the bottom of wells with a pipette tip, and allowed to polymerize at room temperature for 15 minutes. The remainder of the well was then filled with 10% FBS DMEM and slide was stored at 37° C. and 5% CO2 for either 24 hrs for viability assays, 3 hrs for ERK activity assays, or 1 hour for visualization of septins/PI3K activity.
3D Light-Sheet Imaging. […] All images were saved in the OME-TIFF format.
3D Cell Image Analysis. Cell morphology and septin localization were analyzed principally via u-shape3D similar to the protocol described in Driscoll et al. Nature Methods. 16, 1037-1044 (2019), the disclosure of which is incorporated herein in its entirety. Briefly, 3D images were first deconvolved using either a Richardson-Lucy or Wiener algorithm with an experimentally measured point spread function. […] Cell surfaces were then represented as triangle meshes, and the mean surface curvature at every triangle was calculated according to methods described in Driscoll et al. Nature Methods. […] Septin and NRAS localization was measured from fluorescence images by extending a sphere of either 1 μm (for septins) or 2 μm (for NRAS) about each mesh triangle and mapping to the triangle the average intensity both within that sphere and the cell. Image intensity was not depth normalized prior to analysis, but was instead measured from the raw, undeconvolved image. […]
Cortical septin levels were quantified by measuring the mean cytoplasmic intensity of each cell using hand-drawn ROIs that excluded nuclei (performed with the FIJI ImageJ package), and then calculating for each cell its fraction of cortical voxels (intracellular voxels within 0.96 μm of the u-Shape3D-derived surface) that were higher than that cell's mean cytoplasmic intensity (performed using a MATLAB script). NRAS enrichment at the surface was quantified by first calculating the total amount of intracellular signal expected to be within 0.96 μm of the surface if the cell's signal was homogenously distributed between all voxels, and then calculating the percent change between this value and the observed value for each cell. […]

## Cc1cncc2cccc(S(=O)(=O)N3CCCNC[C@@H]3C)c12 [H1152]
  septin localization (cortical levels): pronounced effects on septin localization, reducing cortical levels
